Results from US20230321054A1, “COMPOSITIONS AND METHODS FOR CANCER AND TUMOR TREATMENT” (Washington University, priority 2022, published 2023).
Entries after “also recorded” stand apart in the source; their conditions may differ.

How the values were obtained:
[1] = test system: tumor-liver alanine cycle; assay: [U-13C] glucose isotope tracing / LC/MS metabolomics in drug-treated BRAF/p53 zebrafish (tumor-liver alanine cycling); type: in vivo
Procedure: For all isotope tracing experiments, zebrafish were fasted for 24 h to empty the digestive tract prior to labeling. […] During steady-state labeling experiments, zebrafish were allowed to swim freely in facility water containing the corresponding stable isotopes at the aforementioned concentrations, in addition to 2% penicillin/streptomycin (Life Technologies). For isotope tracing via intraperitoneal injection, zebrafish were injected using a previously described method. Briefly, anesthetized fish were quickly dried and weighed. Zebrafish were then placed into the trough of a wet precut sponge, with the abdomen facing up and gills secured in the trough. A 35G beveled needle and NanoFil 10 µL syringe (World Precision Instruments) was carefully inserted midline near the pelvic girdle, and a [U-^13C] glucose treatment solution (0.5 mg/g) was slowly dispensed. After injection, fish were placed in 28° C. facility water and monitored for recovery from anesthesia (typically 5-10 seconds). Throughout the experiment, each fish was kept in an individual tank to allow for tracking.
To extract metabolites from serum, samples were diluted 1:15 with methanol:acetonitrile:water (2:2:1) at -20° C., vortexed for 10 s, and incubated at -20° C. for 1 h. Following incubation, metabolite extracts were centrifuged at 20,000 g and 4° C. for 10 min, and the supernatant was transferred into an LC/MS vial for same-day analysis. To extract metabolites from zebrafish tissues, frozen samples were ground in 1.5 mL microcentrifuge tubes with a disposable pellet pestle (Fisherbrand). The pellet pestle was placed in liquid nitrogen prior to sample grinding, and the microcentrifuge tube (containing tissue) was submerged in liquid nitrogen for the entirety of tissue grinding. […] The powderized tissue was mixed with -20° C. methanol:acetonitrile:water (2:2:1) and subjected to two cycles of freezing in liquid nitrogen (1 min), thawing in 25° C. water (10 s), sonication (5 min), and vortexing (30 s). Samples were then incubated at -20° C. for 1 h. […]

[2] = test system: alanine cycling in WT zebrafish; assay: [U-13C] glucose isotope tracing in vemurafenib-treated WT zebrafish; type: in vivo; details: 100 mg/kg/day, 4 consecutive days, vs vehicle
Procedure: For all isotope tracing experiments, zebrafish were fasted for 24 h to empty the digestive tract prior to labeling. To determine the [U-^13C] glucose concentration for isotopic steady-state labeling, concentrations between 5 - 20 mM were tested. […] Similarly, concentrations between 1 - 10 mM of [U-^13C] glutamine were tested for steady-state labeling. […] For ^15N-BCAA labeling experiments, 2 mM each [^15N] leucine, [^15N] isoleucine, and [^15N] valine were concurrently supplemented to facility water. For ^13C-BCAA labeling experiments, 4 mM each of [U-^13C] leucine, [U-^13C] isoleucine, and [U-^13C] valine were concurrently supplemented to facility water. During steady-state labeling experiments, zebrafish were allowed to swim freely in facility water containing the corresponding stable isotopes at the aforementioned concentrations, in addition to 2% penicillin/streptomycin (Life Technologies). For isotope tracing via intraperitoneal injection, zebrafish were injected using a previously described method. Briefly, anesthetized fish were quickly dried and weighed. Zebrafish were then placed into the trough of a wet precut sponge, with the abdomen facing up and gills secured in the trough. […] After injection, fish were placed in 28° C. facility water and monitored for recovery from anesthesia (typically 5-10 seconds). […]

[3] = test system: melanoma tumors of BRAF/p53 zebrafish; assay: Tumor size by digital calipers in melanoma-bearing BRAF/p53 zebrafish; type: in vivo
Procedure: Wild-type (WT) fish were inbred AB strain (sjA). p53-/- and transgenic mitfa-BRAFV600E¬ lines were crossed to produce melanoma-bearing fish (referred to as BRAF/p53), using a previously described method. All fish were reared according to standard laboratory procedures. Fish were kept in an indoor environment at a temperature of 28 ± 1° C. with a 14:10-h light:dark circadian cycle. Both female and male fish were used for experiments at random. Experiments were conducted with age-matched animals (i.e., within 2 weeks of age). To assay tumor growth, melanoma dimensions were measured by using digital calipers. Tumor size was approximated as the volume of a half ellipsoid, ⅔ πabc, where a, b, and c represent the radii of tumor length, width, and height respectively.
Vemurafenib was dissolved in DMSO, and vemurafenib solution or DMSO alone (vehicle) was delivered via intraperitoneal injection following a previously described protocol detailed above. Throughout the experiment, each fish was kept in an individual tank to allow for tracking. […]

[4] = humans, mice, and zebrafish; cited from earlier work
[5] = test system: alanine aminotransferase (ALT); assay: [U-13C] BCAA labeling and metabolite pool sizes after ALT inhibition in BRAF/p53 zebrafish; type: in vivo; details: 600 µM in water, 10 days, vs vehicle
Procedure: For all isotope tracing experiments, zebrafish were fasted for 24 h to empty the digestive tract prior to labeling. To determine the [U-^13C] glucose concentration for isotopic steady-state labeling, concentrations between 5 - 20 mM were tested. […] Similarly, concentrations between 1 - 10 mM of [U-^13C] glutamine were tested for steady-state labeling. […] For ^15N-BCAA labeling experiments, 2 mM each [^15N] leucine, [^15N] isoleucine, and [^15N] valine were concurrently supplemented to facility water. For ^13C-BCAA labeling experiments, 4 mM each of [U-^13C] leucine, [U-^13C] isoleucine, and [U-^13C] valine were concurrently supplemented to facility water. During steady-state labeling experiments, zebrafish were allowed to swim freely in facility water containing the corresponding stable isotopes at the aforementioned concentrations, in addition to 2% penicillin/streptomycin (Life Technologies). For isotope tracing via intraperitoneal injection, zebrafish were injected using a previously described method. Briefly, anesthetized fish were quickly dried and weighed. Zebrafish were then placed into the trough of a wet precut sponge, with the abdomen facing up and gills secured in the trough. A 35G beveled needle and NanoFil 10 µL syringe (World Precision Instruments) was carefully inserted midline near the pelvic girdle, and a [U-^13C] glucose treatment solution (0.5 mg/g) was slowly dispensed. After injection, fish were placed in 28° C. facility water and monitored for recovery from anesthesia (typically 5-10 seconds). Throughout the experiment, each fish was kept in an individual tank to allow for tracking.
To extract metabolites from serum, samples were diluted 1:15 with methanol:acetonitrile:water (2:2:1) at -20° C., vortexed for 10 s, and incubated at -20° C. for 1 h. Following incubation, metabolite extracts were centrifuged at 20,000 g and 4° C. for 10 min, and the supernatant was transferred into an LC/MS vial for same-day analysis. To extract metabolites from zebrafish tissues, frozen samples were ground in 1.5 mL microcentrifuge tubes with a disposable pellet pestle (Fisherbrand). The pellet pestle was placed in liquid nitrogen prior to sample grinding, and the microcentrifuge tube (containing tissue) was submerged in liquid nitrogen for the entirety of tissue grinding. We note that microcentrifuge tubes were labeled and weighed prior to tissue harvest and then weighed again following tissue grinding. The powderized tissue was mixed with -20° C. methanol:acetonitrile:water (2:2:1) and subjected to two cycles of freezing in liquid nitrogen (1 min), thawing in 25° C. water (10 s), sonication (5 min), and vortexing (30 s). Samples were then incubated at -20° C. for 1 h. For every 1 mg of tissue wet weight, 40 µL of extraction solvent was added. Following protein precipitation, tissue extracts were centrifuged at 20,000 g and 4° C. for 10 min, and the supernatant was transferred into an LC/MS vial for same-day analysis.
Ultra-high performance LC (UHPLC)/MS was performed with a Thermo Scientific Vanquish Horizon UHPLC system interfaced with a Thermo Scientific Orbitrap ID-X Tribrid Mass Spectrometer (Waltham, MA). Hydrophilic interaction liquid chromatography (HILIC) was conducted with a SeQuant ZIC-pHILIC guard column (20 mm × 2.1 mm, 5 µm) connected to a SeQuant ZIC-pHILIC column (100 mm × 2.1 mm, 5 µm; EMD Millipore, Burlington, MA). Chromatographic solvents were adapted from a previously described work. […]

[6] = 50 µM in tank water, 6 days, vs DMSO

## CCN(c1nc(N)c(C(=O)N=C(N)N)nc1Cl)C(C)C [EIPA, 5-(N-ethyl-N-isopropyl)amiloride]
[1]; [6]
  alanine labeling in the tumor: did not affect
  hepatic gluconeogenesis (M3 labeling of glucose in the liver and serum): did not affect

## CCCS(=O)(=O)Nc1ccc(F)c(C(=O)c2c[nH]c3ncc(-c4ccc(Cl)cc4)cc23)c1F [vemurafenib]
[2]
  13C-labeling in metabolites from the circulation, liver, or muscle: No differences; also recorded: does not lead to off-target metabolic effects
[3]; 100 mg/kg/day i.p., after 10 days
  tumors reduced in size: > 95%
[4]
  toxicity and tolerability: minimal toxicity and high tolerability
[1]; 100 mg/kg/day i.p., 4 days, vs vehicle, 10 mM [U-13C] glucose 24 h
  reduction of M3 labeling of alanine in the tumor: ~ 2 fold

## N[C@@H](CCl)C(=O)O [β-chloroalanine, β-chloro-L-alanine]
[5]
  BCAAs in serum (pool size): accumulation
  BCAAs in tumor (pool size): accumulation
  contribution that [U-13C] BCAAs made to the TCA cycle in tumors: significantly reduced
  levels of alanine in tumor, serum, and liver: decreased
  levels of circulating glucose: decreased
[3]; β-chloroalanine in water, 10 days
  reduction in tumor size: 50%
